Values after ≈ are worked out from the molar mass of the structure shown. Active and inactive are the calls of the source. No cut-off for these calls is given here.
How the values were obtained:
[1] = target: T-cell surface glycoprotein CD4 (Homo sapiens) (UniProt P01730); experiment: Binding Intensity against CD4+ HH-leukemic cells at 5 ug/mL.; assay type: cell-based
[2] = target: T1, Receptor-type tyrosine-protein phosphatase C (Homo sapiens) (UniProt P08575); experiment: Binding Intensity was determined against CD45+ HH-leukemic cells at 5 ug/mL; No change; assay type: cell-based
T1 sequence (whole entry): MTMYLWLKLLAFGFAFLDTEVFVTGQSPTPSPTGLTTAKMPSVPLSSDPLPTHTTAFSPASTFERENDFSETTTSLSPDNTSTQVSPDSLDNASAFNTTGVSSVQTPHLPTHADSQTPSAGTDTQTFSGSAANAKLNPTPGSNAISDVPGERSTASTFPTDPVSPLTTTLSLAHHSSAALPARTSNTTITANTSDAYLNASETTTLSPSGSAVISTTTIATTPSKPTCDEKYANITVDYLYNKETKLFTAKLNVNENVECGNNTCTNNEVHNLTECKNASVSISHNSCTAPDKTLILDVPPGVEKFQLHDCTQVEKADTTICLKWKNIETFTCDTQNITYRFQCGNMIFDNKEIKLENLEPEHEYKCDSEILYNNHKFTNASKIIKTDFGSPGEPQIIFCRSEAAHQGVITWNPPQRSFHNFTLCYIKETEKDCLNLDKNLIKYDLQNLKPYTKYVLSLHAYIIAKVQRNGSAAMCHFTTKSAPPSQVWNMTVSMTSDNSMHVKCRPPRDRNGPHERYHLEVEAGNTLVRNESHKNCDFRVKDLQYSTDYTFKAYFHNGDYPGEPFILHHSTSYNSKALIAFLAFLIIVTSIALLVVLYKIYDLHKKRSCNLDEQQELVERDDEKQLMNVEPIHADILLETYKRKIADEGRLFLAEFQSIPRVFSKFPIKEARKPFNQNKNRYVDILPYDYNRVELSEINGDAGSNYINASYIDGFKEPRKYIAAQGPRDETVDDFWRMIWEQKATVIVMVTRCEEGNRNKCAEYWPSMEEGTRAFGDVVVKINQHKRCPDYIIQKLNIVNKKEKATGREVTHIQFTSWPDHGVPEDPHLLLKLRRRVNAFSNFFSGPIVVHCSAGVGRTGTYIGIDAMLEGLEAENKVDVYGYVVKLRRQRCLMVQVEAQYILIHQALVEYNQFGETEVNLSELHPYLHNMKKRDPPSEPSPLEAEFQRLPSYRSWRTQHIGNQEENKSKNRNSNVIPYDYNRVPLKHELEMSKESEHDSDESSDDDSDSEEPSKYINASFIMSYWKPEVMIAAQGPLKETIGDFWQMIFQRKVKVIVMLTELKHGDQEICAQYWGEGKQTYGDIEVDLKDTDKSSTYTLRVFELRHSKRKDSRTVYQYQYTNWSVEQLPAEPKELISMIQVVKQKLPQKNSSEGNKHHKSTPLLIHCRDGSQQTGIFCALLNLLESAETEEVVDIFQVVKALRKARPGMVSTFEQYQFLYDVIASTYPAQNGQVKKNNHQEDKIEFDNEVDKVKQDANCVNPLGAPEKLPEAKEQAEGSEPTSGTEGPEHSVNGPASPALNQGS

HH-leukemic [3] = experiment: Binding Intensity against CD11C+ HH-leukemic cells at 5 ug/mL.; assay type: cell-based; details: Homo sapiens
T-cell = experiment: Cytotoxicity in HH T-lymphocytic leukemia cells; assay type: functional, cell-based; details: Homo sapiens
[4] = target: T1, Receptor-type tyrosine-protein phosphatase C (Homo sapiens); experiment: Binding Intensity against CD45+ HH-leukemic cells at 5 ug/mL; assay type: cell-based
HH-leukemic [5] = experiment: Binding Intensity against CD11C+ HH-leukemic cells at 5 ug/mL; assay type: cell-based; details: Homo sapiens
[6] = target: T-cell surface glycoprotein CD4 (Homo sapiens) (UniProt P01730); experiment: Binding Intensity against CD4+ HH-leukemic cells at 5 ug/mL; assay type: cell-based

For `O=C1NC(=O)C(/C=N\Nc2ccc([N+](=O)[O-])cc2)C(=O)N1`, the Binding intensity [1] was “No change”, the Binding intensity [2] was “inactive” and the Binding intensity (HH-leukemic [3]) was “No change”. The IC50 (T-cell) was > 6 µg/mL.

`CN1C(=O)C(C2(C3C(=O)N(C)C(=O)N(C)C3=O)C(=O)Nc3ccccc32)C(=O)N(C)C1=O` was tested, and the Binding intensity [1] was “No change”, the Binding intensity [2] was “inactive” and the Binding intensity (HH-leukemic [3]) was “No change”. For the same compound, the IC50 (T-cell) was > 10 µg/mL.

For `O=C(O)CCC/N=C(\c1ccccc1)C1C(=O)NC(=O)NC1=O`, the Binding intensity [1] was “No change”, the Binding intensity [2] was “inactive” and the Binding intensity (HH-leukemic [3]) was “No change”. The IC50 (T-cell) was > 10 µg/mL.

For `O=C1NC(=O)C(/C(=N\Nc2ccc([N+](=O)[O-])cc2[N+](=O)[O-])c2ccc(O)cc2)C(=O)N1`, the Binding intensity [1] was “No change”, the Binding intensity [2] was “inactive” and the Binding intensity (HH-leukemic [3]) was “No change”. The IC50 (T-cell) was > 10 µg/mL.

For `CS(=O)(=O)Oc1ccc(C(=NNc2ccc([N+](=O)[O-])cc2[N+](=O)[O-])c2ccc(OS(C)(=O)=O)cc2)cc1`, the Binding intensity [1] was “No change”, the Binding intensity [2] was “inactive” and the Binding intensity (HH-leukemic [3]) was “No change”. The IC50 (T-cell) was > 10 µg/mL.

In the case of `O=[N+]([O-])c1ccc(NN=C(c2ccc(OP(=O)(O)O)cc2)c2ccc(OP(=O)(O)O)cc2)c([N+](=O)[O-])c1`, the Binding intensity [1] was “No change”, the Binding intensity [2] was “inactive” and the Binding intensity (HH-leukemic [3]) was “No change”. The IC50 (T-cell) was > 10 µg/mL.

For `O=[N+]([O-])c1ccc(NN=C(c2ccccc2)c2ccccc2)c([N+](=O)[O-])c1`, the Binding intensity [1] was “No change”, the Binding intensity [2] was “inactive” and the Binding intensity (HH-leukemic [3]) was “No change”. For the same compound, the IC50 (T-cell) was > 10 µg/mL.

`C/C(=N\Nc1ccc([N+](=O)[O-])cc1)c1ccc(O)cc1` was tested, and the Binding intensity [2] was “inactive” and the IC50 (T-cell) was 4.1 µg/mL (≈ 15.1 µM).

`CN1C(=O)C(/C=N\Nc2ccc([N+](=O)[O-])cc2[N+](=O)[O-])C(=O)N(C)C1=O` was tested, and the IC50 (T-cell) was > 8 µg/mL.

For `C/C(=N/Nc1ccc([N+](=O)[O-])cc1)C1C(=O)NC(=O)NC1=O`, the Binding intensity [1] was “No change”, the Binding intensity [2] was “inactive” and the Binding intensity (HH-leukemic [3]) was “No change”. The IC50 (T-cell) was > 10 µg/mL.

In the case of `O=[N+]([O-])c1ccc(NN=C(c2ccc(O)cc2)c2ccc(O)cc2)c([N+](=O)[O-])c1` [SIVIFENE], the Binding intensity [1] was “No change”, the Binding intensity [4] was 50% and the Binding intensity (HH-leukemic [5]) was 20%. For the same compound, the IC50 (T-cell) was 3.2 µg/mL (≈ 8.11 µM).

With `O=[N+]([O-])c1ccc(N/N=C/c2ccc(O)cc2)cc1` the Binding intensity [2] was “inactive” and the IC50 (T-cell) was 5 µg/mL (≈ 19.4 µM).

In the case of `O=C(O)CCCCC/N=C/C1C(=O)NC(=O)NC1=O`, the Binding intensity [1] was “No change”, the Binding intensity [2] was “inactive” and the Binding intensity (HH-leukemic [3]) was “No change”. For the same compound, the IC50 (T-cell) was > 10 µg/mL.

For `Nc1ccc(C(=NNc2ccc([N+](=O)[O-])cc2[N+](=O)[O-])c2ccc(N)cc2)cc1`, the Binding intensity [1] was “No change”, the Binding intensity [4] was 25% and the Binding intensity (HH-leukemic [3]) was “No change”. The IC50 (T-cell) was 5 µg/mL (≈ 12.7 µM).

For `CN1C(=O)C(C(c2ccnc3ccccc23)C2C(=O)N(C)C(=O)N(C)C2=O)C(=O)N(C)C1=O`, the IC50 (T-cell) was > 10 µg/mL.

With `O=C1NC(=O)C(C(c2cccnc2)C2C(=O)NC(=O)NC2=O)C(=O)N1` the IC50 (T-cell) was > 10 µg/mL.

With `O=C1NC(=O)C(/C(=N\Nc2ccc([N+](=O)[O-])cc2[N+](=O)[O-])c2ccccc2)C(=O)N1` the Binding intensity [1] was “No change”, the Binding intensity [2] was “inactive” and the Binding intensity (HH-leukemic [3]) was “No change”. For the same compound, the IC50 (T-cell) was > 10 µg/mL.

`O=[N+]([O-])c1cc([N+](=O)[O-])c(NN=C(c2ccc(O)cc2)c2ccc(O)cc2)cc1Cl` was tested, and the Binding intensity [1] was “No change”, the Binding intensity [2] was “inactive” and the Binding intensity (HH-leukemic [3]) was “No change”. For the same compound, the IC50 (T-cell) was 1.5 µg/mL (≈ 3.5 µM).

In the case of `C/C(=N/Nc1ccc([N+](=O)[O-])cc1[N+](=O)[O-])C1C(=O)NC(=O)NC1=O`, the Binding intensity [1] was “No change”, the Binding intensity [2] was “inactive” and the Binding intensity (HH-leukemic [3]) was “No change”. The IC50 (T-cell) was 3.5 µg/mL (≈ 9.99 µM).

`O=C(O)CC/N=C/C1C(=O)NC(=O)NC1=O` was tested, and the Binding intensity [1] was “No change”, the Binding intensity [2] was “inactive” and the Binding intensity (HH-leukemic [3]) was “No change”. For the same compound, the IC50 (T-cell) was > 12 µg/mL.

For `C/C(=N/Nc1ccc([N+](=O)[O-])cc1[N+](=O)[O-])C1C(=O)N(C)C(=O)N(C)C1=O`, the Binding intensity (HH-leukemic [3]) was “No change” and the IC50 (T-cell) was 10 µg/mL (≈ 26.4 µM).

In the case of `O=[N+]([O-])c1ccccc1NN=C(c1ccc(O)cc1)c1ccc(O)cc1`, the Binding intensity [1] was “No change”, the Binding intensity [2] was “inactive” and the Binding intensity (HH-leukemic [3]) was “No change”. It also gave an IC50 (T-cell) of 2.7 µg/mL (≈ 7.73 µM).

Work on `O=[N+]([O-])c1ccc(NN=C(c2ccc(NS(=O)(=O)c3ccccc3)cc2)c2ccc(NS(=O)(=O)c3ccccc3)cc2)c([N+](=O)[O-])c1` yielded an IC50 (T-cell) of 6 µg/mL (≈ 8.92 µM).

For `COc1ccc(C(=NNc2ccc([N+](=O)[O-])cc2[N+](=O)[O-])c2ccc(OC)cc2)cc1`, the Binding intensity [6] was 25%, the Binding intensity [2] was “inactive” and the Binding intensity (HH-leukemic [5]) was 25%. For the same compound, the IC50 (T-cell) was > 10 µg/mL.

`O=C1NC(=O)C(C2(C3C(=O)NC(=O)NC3=O)C(=O)Nc3ccccc32)C(=O)N1` was tested, and the Binding intensity [1] was “No change”, the Binding intensity [2] was “inactive” and the Binding intensity (HH-leukemic [3]) was “No change”. The IC50 (T-cell) was > 10 µg/mL.

`O=C(O)CCC/N=C/C1C(=O)NC(=O)NC1=O` was tested, and the Binding intensity [1] was “No change”, the Binding intensity [4] was 25% and the Binding intensity (HH-leukemic [3]) was “No change”. It also gave an IC50 (T-cell) of 3.5 µg/mL (≈ 14.5 µM).

With `O=C1NC(=O)C(C(c2ccnc3ccccc23)C2C(=O)NC(=O)NC2=O)C(=O)N1` the Binding intensity [1] was “No change”, the Binding intensity [4] was 25% and the Binding intensity (HH-leukemic [3]) was “No change”. The IC50 (T-cell) was > 10 µg/mL.

`Cl.O=C1N=C2C(=Nc3ccccc32)N1c1ccc(O)cc1` was tested, and the Binding intensity [1] was “No change”, the Binding intensity [2] was “inactive” and the Binding intensity (HH-leukemic [3]) was “No change”. For the same compound, the IC50 (T-cell) was > 10 µg/mL.

From ChEMBL document CHEMBL1134984, “Anticancer activity for 4,4'-dihydroxybenzophenone-2,4-dinitrophenylhydrazone (A-007) analogues and their abilities to interact with lymphoendothelial cell surface markers” (Bioorg Med Chem Lett, 2002)
